Experimental data published in US9518085B2, “Compounds and pharmaceutical combinations for the treatment of neurodegenerative and ischemic brain diseases” (CENTRO DE INGENIERÍA GENÉTICA Y BIOTECHNOLOGÍA, priority 2011, dated 2016).
No end group written: not given here.

Legend:
PC12 cell line = experiment: Neuroprotector effect against Sodium glutamate induced damage in PC12 cells (MTT cell viability); format: cell-based; conditions: for cells protected from the damage: Sodium glutamate damage, PC12; for concentration needed to attain cell viability similar to C-Phyco: PC12, 24 h pretreatment, 4 h co-incubation with Sodium glutamate, MTT
Protocol: FIG. 2. In vitro study of the neuroprotector effect of C-Phycocyanin (C-Phyco) (A) and of PCB and PCB-aa (B) against the Sodium glutamate (50 mM) induced damage in the neuronal line PC12. The symbols indicate the presence (+), absence (−) or concentrations of the respective compounds in the culture medium. Different letters indicate statistically significant difference, according to ANOVA followed by the Newman-Keuls multiple comparison test, p<0.05. The values presented in the graphs are the means±standard error of the mean (MSE).
PC12 cells (1.5×10^4 cells/well) were pretreated with C-Phyco (25, 50 μM) or PCB (0.5; 1; 5 μM) or PCB-aa (0.25; 1; 2 μM), during 24 h, and then submitted to co-incubation with […] Sodium glutamate together with the corresponding product (different doses) for 4 h.

[1] = test system: culture of brain granulous cells; conditions: 1-3 mg/mL, absence of potassium and serum for 24 h; cited from earlier work
[2] = test system: swollen paw models in mice and rats; conditions: oral route, 100-200 mg/kg; cited from earlier work
[3] = test system: model of brain damage in rats induced by kainic acid; conditions: one 100 mg/kg dose; cited from earlier work
COX-2 = target: T1, COX-2 (Homo sapiens, UniProt P35354); conditions: isolated enzyme; complete blood assay; cited from earlier work
T1 sequence (P35354 18-604): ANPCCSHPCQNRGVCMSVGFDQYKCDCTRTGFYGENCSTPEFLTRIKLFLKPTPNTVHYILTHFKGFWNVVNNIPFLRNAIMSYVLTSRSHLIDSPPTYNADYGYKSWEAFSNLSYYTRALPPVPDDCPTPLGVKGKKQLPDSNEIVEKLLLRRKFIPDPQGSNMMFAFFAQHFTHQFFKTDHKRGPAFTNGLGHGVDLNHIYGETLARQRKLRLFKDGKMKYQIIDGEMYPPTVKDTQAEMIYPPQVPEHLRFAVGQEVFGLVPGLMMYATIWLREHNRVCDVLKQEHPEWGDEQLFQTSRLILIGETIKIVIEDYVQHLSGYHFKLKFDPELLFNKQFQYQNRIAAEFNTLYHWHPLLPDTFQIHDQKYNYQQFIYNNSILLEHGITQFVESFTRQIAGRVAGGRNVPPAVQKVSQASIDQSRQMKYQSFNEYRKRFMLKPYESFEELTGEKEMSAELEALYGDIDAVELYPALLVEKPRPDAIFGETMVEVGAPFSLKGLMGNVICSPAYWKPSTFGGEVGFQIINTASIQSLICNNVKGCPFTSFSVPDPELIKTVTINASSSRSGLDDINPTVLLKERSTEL

[4] = test system: brain I/R model in Mongolian gerbils; experiment: Brain infarct volume in the bilateral ischemia-reperfusion (I/R) model, transient CCA occlusion; format: in vivo; conditions: 24 h after 10 min CCA occlusion, PCB 750 μg/Kg ip, PCB-aa 3.375 mg/kg, alone or combined
Protocol: The animals were treated with saline solution or with an accumulative dose of the PCB-aa peptides (3.375 mg/kg of each one), by intraperitoneal route for 30 min, 3, 6 and 12 h after the ischemic event.
The effectiveness percentage of each treatment was calculated according to the following formula: effectiveness %=(1−Vi/VI/R)×100. Vi: infarct volume of the ischemic group treated with the corresponding product; VI/R: volume of the infarct of the ischemic group treated with saline solution.
The percentage of effectiveness was calculated as described in Example 3.
The animals were treated with a saline solution (through the intraperitoneal route) or with an accumulative dose of PCB (750 μg/Kg, by the intraperitoneal route), PCB-aa (peptide 4) 3.375 mg/kg, EPO (500 U/Kg, through the intraperitoneal route), asyaloEPO (200 U/Kg, through the nasal route) or with PCB/EPO or PCB-aa (peptide 4)/EPO, PCB/asyaloEPO and PCB-aa ([…])/asyaloEPO (maintaining the dose and the corresponding administration route) for 30 min, 3, 6 and 12 h after the ischemic event.
The evaluation of the therapeutic effect of the combinations and their independent components was carried out. The percentage of effectiveness of each treatment was calculated as described in Example 3.

[5] = test system: hippocampus (C2, CA3, CA4 regions) of Mongolian gerbils, I/R model; experiment: Morphometric evaluation, bilateral hippocampal cell count after transient CCA occlusion; format: in vivo; conditions: 750 μg/Kg ip, GHRP-6 6.25 μg/kg ip, alone or combined; 30 min, 3, 6, 12 h after ischemic event
Protocol: FIG. 8. Morphometric evaluation of the therapeutic effect with PCB-aa (peptide 3), the GHRP-6 peptide, or its combination in Mongolian gerbils submitted to transient (10 min) occlusion of CCA. A: representative images (4× magnification) of the left hippocampus of animals that underwent fake surgery (sham), or treated with saline solution, or with PCB-aa (peptide 3) and GHRP-6 (6.25 μg/kg, intraperitoneal route), or with PCB-aa (peptide 3)/GHRP-6 (maintaining the corresponding doses and administration routes) for 30 min, 3, 6 and 12 h after the ischemic event. B: bilateral cell count performed in the C2, CA3 and CA4 regions of both hippocampi for each experimental group. Different letters indicate significant differences with respect to the I/R+saline group, *p<0.05. The values presented in the graphs are means±MSE
The morphometric evaluations of the therapeutic treatment with PCB-aa (peptide 3), the GHRP-6 peptide or its combinations were tested in Mongolian gerbils submitted to transient (10 min) CCAs occlusion. Accumulative doses of PCB-aa (peptide 3) (750 μg/Kg, by intraperitoneal route), GHRP-6 (6.25 μg/kg, intraperitoneal route), or with PCB-aa (peptide 3)/GHRP-6 (maintaining the corresponding dose and administration route) for 30 min, 3, 6 and 12 h after the ischemic event were evaluated. The bilateral cell count was performed in the C2, CA3 and CA4 regions for each experimental group and it was expressed in percentage with respect to the sham (negative or fake surgery) group.

[6] = test system: experimental autoinmune encephalomyelitis (EAE) model; experiment: EAE model, prophylactic schedule, clinical index; format: in vivo, C57BL6 mice; conditions: PCB-aa 3.375 mg/Kg, PCB 750 μg/Kg, alone or combined
Protocol: (§1) In the prophylactic schedule the treatment was performed 15 days before EAE induction and in the therapeutic schedule starting from the beginning of the clinical signs.

EAE model = experiment: EAE model, therapeutic schedule, clinical course (area under the curve); format: in vivo, C57BL6 mice; conditions: PCB 750 μg/kg ip, PCB-aa 3.375 mg/kg ip daily 15 days, IFN-b 500 ng/Kg sc 6 doses, alone or combined
Protocol: The percentage of effectiveness of each treatment was calculated according to the following formula: % of effectiveness=(1−ACi/ACEAE)×100. ACi: area under the curve of the group treated with the corresponding product; ACEAE: area under the curve of the EAE group.
as §1

[7] = EPO 500 U/Kg ip, asyaloEPO 200 U/Kg nasal
[8] = IFN-a/IFN-b 500 ng/Kg sc, 30 min, 3, 6, 12 h after ischemic event

Substance: C-Phycocyanin
- cells protected from the damage (PC12 cell line; 50 μM C-Phyco): around 75%
- neuron death [1]: prevents neuron death
- edema [2]: able to reduce edemas
- signs and alterations versus untreated control group [3]: reduced the signs
- COX-2 inhibition (COX-2): inhibits COX-2

Substance: ^84BAR^86 (Cys(phycocyanobilin)-Ala-Arg; listed as Spirulina platensis) [PCB-aa (peptide 2), chromogenic peptide of α-C-Phyco]
- effectiveness, reduction of brain infarct volume ([4]; IL-2 100 ng/Kg sc): 49.2%

Substance: ^80AABLR^84 (AAC(phycocyanobilin)LR; listed as Spirulina platensis) [PCB-aa (peptide 3), chromogenic peptide of β-C-Phyco]
- effectiveness, bilateral hippocampal cell count [5]: 35.8%

Substance: GHRP-6 [reference compound]
- effectiveness, bilateral hippocampal cell count [5]: 36.1%

Substance: ^82BLR^84 (Cys(phycocyanobilin)-Leu-Arg; listed as Spirulina platensis) [PCB-aa (peptide 4), chromogenic peptide of β-C-Phyco]
- effectiveness, reduction of brain infarct volume [4, 7]: 49.2%

Substance: Phycocyanobilin [PCB]
- effectiveness, reduction of brain infarct volume [4, 7]: 43.1%
- effectiveness, reduction of brain infarct volume [4, 8]: 43.1%
- effectiveness, reduction of brain infarct volume ([4]; IL-2 100 ng/Kg sc): 43.1%
- cells protected from the damage (PC12 cell line; 5 μM PCB): 100%
- concentration needed to attain cell viability similar to C-Phyco (PC12 cell line): lower concentrations
- protective molar concentration, times lower than C-Phyco (PC12 cell line; PC12, Sodium glutamate damage): 10 times
- Clinical score (Mean ± SD) ([6]; Table 1, IFN-a 500 ng/Kg): 1.37 ± 1.7
- Days of the disease ([6]; Table 1, IFN-a 500 ng/Kg): 8.5 ± 0.1 days
- Incidence (%) ([6]; Table 1, IFN-a 500 ng/Kg): 70%
- Starting Day (Mean ± SD) ([6]; Table 1, IFN-a 500 ng/Kg): 10.5 ± 0.5
- Clinical score (Mean ± SD) ([6]; Table 2, IFN-b 500 ng/Kg): 1.55 ± 0.3
- Days of the disease ([6]; Table 2, IFN-b 500 ng/Kg): 7.3 ± 0.4 days
- Incidence (%) ([6]; Table 2, IFN-b 500 ng/Kg): 60%
- Starting day (Mean ± DS) ([6]; Table 2, IFN-b 500 ng/Kg): 12.3 ± 0.1
- effectiveness, bilateral hippocampal cell count [5]: 35.8%
- % of effectiveness (area under the curve of clinical index) (EAE model): 46.1%

Substance: ^79MAABLR^84 (MAAC(phycocyanobilin)LR; listed as Spirulina platensis) [PCB-aa (peptide 1), chromogenic peptide of β-C-Phyco]
- effectiveness, reduction of brain infarct volume [4, 8]: 49.2%
- concentration needed to attain cell viability similar to C-Phyco (PC12 cell line): even lower
- Clinical score (Mean ± SD) ([6]; Table 1, IFN-a 500 ng/Kg): 1.23 ± 1.1
- Days of the disease ([6]; Table 1, IFN-a 500 ng/Kg): 7.2 ± 0.3 days
- Incidence (%) ([6]; Table 1, IFN-a 500 ng/Kg): 75%
- Starting Day (Mean ± SD) ([6]; Table 1, IFN-a 500 ng/Kg): 9.5 ± 0.2
- Clinical score (Mean ± SD) ([6]; Table 2, IFN-b 500 ng/Kg): 1.23 ± 1.1
- Days of the disease ([6]; Table 2, IFN-b 500 ng/Kg): 7.2 ± 0.3 days
- Incidence (%) ([6]; Table 2, IFN-b 500 ng/Kg): 70%
- Starting day (Mean ± DS) ([6]; Table 2, IFN-b 500 ng/Kg): 9.5 ± 0.2
